Key:
FXR LBD, GST = molecular target: T1, FXR LBD, GST (Homo sapiens, UniProt Q96RI1); test: FXR Binding Assay (TR-FRET, Fluorescein-SRC2-2 coactivator peptide); settings: for Emax: % Activity relative to positive control, read-out: Pct Effect (Emax %); for EC50: TR-FRET FXR LBD coactivator recruitment
T1 construct: FXR LBD, GST; purchased Invitrogen PV4834
T1 sequence (Q96RI1 262-486 limits assumed): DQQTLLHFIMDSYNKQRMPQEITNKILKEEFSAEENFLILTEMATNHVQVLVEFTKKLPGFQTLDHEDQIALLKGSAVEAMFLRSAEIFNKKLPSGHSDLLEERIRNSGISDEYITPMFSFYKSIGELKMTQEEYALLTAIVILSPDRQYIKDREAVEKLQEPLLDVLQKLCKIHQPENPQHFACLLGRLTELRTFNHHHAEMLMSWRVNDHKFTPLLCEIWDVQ
Description: The interaction between the present compounds and FXR are evaluated by Time-Resolved Fluorescence Resonance Energy Transfer (TR-FRET) competition assay. FRET describes a radiation-free energy transfer between two chromophores: a donor fluorophore in its excited state can transfer energy to an acceptor fluorophore in close proximity (typically <10 nm). In contrast to standard FRET, TR-FRET unites time-resolved fluorescence (TRF) and the FRET principle, TRF use a long-lifetime lanthanide chelate as the donor species, while lanthanide chelates are unique in that their excited-state lifetime can be on the order of a millisecond or longer. Suitable neighbors for FRET are known in the art and can be obtained.
The assay was performed in following steps: first, prepared a) 1 mM compounds (100×) in DMSO; b) reaction buffer containing 1× buffer G with 10 mM DTT; c) 4×FXR LBD (20 nM) in 1× chilled buffer G. Second, performed 3-fold serial dilution of 1 mM test compounds using DMSO from 1 mM, 10 doses in a 96-well plate (249944, Nunc). Then, used complete buffer G to dilute each 100× compounds serial dilution to 2×. Third, added 10 μl 2× compound serial dilution into 384-well plate (3677, Corning). Then, added 5 μl FXR LBD into the assay plate. Prepared a solution containing 2 μM fluorescein-SRC2-2 (4×) and 20 nM Tb anti-GST antibody (4×) in buffer G at room temperature and started the reaction by adding 5 μl the above solution into each well of the assay plate. Centrifuged the assay plates at 1000 g for 1 min and then incubated at room temperature for lhr protected from light. Finally, the plate was read at wavelengths of 520 nm and 495 nm on Envision 2104 plate reader (PerkinElmer).
A ratio (Ratio520 nm/495 nm−Ratiobackground) was calculated for each well. The activity ratio was calculated as follow: […]
Ratiopositive: The average ratio for the positive control across the plate.
Ratiovehicle: The average ratio for negative controls across the plate.
(§1) EC50 was calculated by fitting % Activity values and log of compound concentrations to nonlinear regression (dose response-variable slope) with GraphPad 5.0.
(§2) X: log of compound concentration.

[1] = molecular target: T2, hFXR-LBD (FXR-GAL4 chimeric receptor) (Homo sapiens, UniProt Q96RI1); test: FXR Transactivation Assay (GAL4 luciferase reporter in HEK293T cells); format: cell-based
T2 construct: host or cells: HEK293T
T2 sequence (Q96RI1 262-486 limits assumed): T1 sequence (Q96RI1 262-486 limits assumed)
Description: FXR Transactivation Assay
The present compounds were tested to assess their ability to stimulate FXR transactivation activity. The hFXR-LBD, coding sequence was inserted into the pBIND expression vector (Promega, E1581) to express FXR-GAL4 binding domain chimeric receptors. This expression vector and reporter vector (pGL4.35 which carry a stably integrated GAL4 promoter driven luciferase reporter gene) were co-transfected into HEK293T host cells. Upon agonist binding to the corresponding FXR-GAL4 chimeric receptor, the chimeric receptor binds to the GAL4 binding sites and stimulates the reporter gene.
All the working stock were shake for 5 min on plate shaker (QILINBEIER). Second, all cells were cultured as ATCC recommended. HEK293T cells were assayed in exponential growth phase. Removed culture medium from the flask and rinsed cells with PBS. Added TrypLE solution to the flask and make cells detach. Next, cells were washed once with complete growth medium. Then, cells were pelleted and washed twice with PBS to remove phenol red and resuspend them in medium to a proper concentration. Only cells with viability greater than 90% were used for assays. Seeded 6×10^6 HEK293T cells into a 100 mm dish and incubated at 37° C. under 5% CO2 atmosphere for 16 h. Third, Trans-IT reagent and Opti-MEM mix by inversion and incubate 5 min at room temperature. The cell transfection was performed by mixing DNA and the reagent mixture, as well as 6 μg GAL4-FXR plasmid or 2 μg pGL4.35 luciferase plasmid, respectively. The reagent mixture was added to a 100 mm dish and incubated for 4-7 hrs at 37° C. under 5% CO2 atmosphere. Fourth, transferred 75 nl compound dilutions into 384-well assay plates (PerkinElmer) and seeded HEK293T cells at 17,000 cells/well using phenol red-free DMEM containing 5% charcoal/dextran-treated FBS. Then, cells were incubated for 16-20 h at 37° C. under 5% CO2 atmosphere. Finally, added 25 μl Steady-Glo™ Luciferase Assay Reagent into each well of 384-well assay plate, and then shake plate for 5 min protected from light on a plate shaker. Then, the luminescence value was read on Evision 2104 plate reader (PerkinElmer).
The activity ratio was calculated as follow: […]
RLU: Resulting Luminescence
RLUpositive: The average RLU for the positive controls across the plate.
RLUvehicle: The average RLU for negative controls across the plate.
as §1, §2

Compound	Emax (FXR LBD, GST)	EC50 (FXR LBD, GST)	EC50 [1]
Cn1cc(C(=O)O)c2ccc(N3CCN(CCc4c(-c5c(Cl)cccc5Cl)noc4C4CC4)CC3)cc21 [Example I1, 6-(4-(2-(5-cyclopropyl-3-(2,6-dichlorophenyl)isoxazol-4-yl)ethyl)piperazin-1-yl)-1-methyl-1H-indole-3-carboxylic Acid]	161%	58 nM	101 nM
Cn1cc(C(=O)O)c2ccc(N3CCN(C(=O)Cc4c(-c5c(Cl)cccc5Cl)noc4C4CC4)CC3)cc21 [Example I2, 6-(4-(2-(5-cyclopropyl-3-(2,6-dichlorophenyl)isoxazol-4-yl)acetyl)piperazin-1-yl)-1-methyl-1H-indole-3-carboxylic Acid]	75.1%	5110 nM	11100 nM
CC(C)c1onc(-c2c(Cl)cccc2Cl)c1CCN1CCN(c2ccc3c(C(=O)O)cn(C)c3c2)CC1 [Example I3, 6-(4-(2-(3-(2,6-dichlorophenyl)-5-isopropylisoxazol-4-yl)ethyl)piperazin-1-yl)-1-methyl-1H-indole-3-carboxylic Acid]	192%	91 nM	239 nM
O=C(O)c1ccc2nc(N3CCN(CCc4c(-c5c(Cl)cccc5Cl)noc4C4CC4)CC3)sc2c1 [Example I4, 2-(4-(2-(5-cyclopropyl-3-(2,6-dichlorophenyl)isoxazol-4-yl)ethyl)piperazin-1-yl)benzo[d]thiazole-6-carboxylic Acid]	89.8%	244 nM	1500 nM
O=C(O)c1cc(F)c2nc(N3CCN(CCc4c(-c5ccccc5OC(F)(F)F)noc4C4CC4)CC3)sc2c1 [Example I5, 2-(4-(2-(5-cyclopropyl-3-(2-(trifluoromethoxy)phenyl)isoxazol-4-yl)ethyl)piperazin-1-yl)-4-fluorobenzo[d]thiazole-6-carboxylic Acid]	116%	297 nM	2380 nM
O=C(O)c1ccc2cc(N3CCN(CCc4c(-c5c(Cl)cccc5Cl)noc4C4CC4)CC3)ccc2n1 [Example I6, 6-(4-(2-(5-cyclopropyl-3-(2,6-dichlorophenyl)isoxazol-4-yl)ethyl)piperazin-1-yl)quinoline-2-carboxylic Acid]	142%	118 nM	459 nM
Cn1cc(C(=O)O)c2ccc(N3CCCN(CCc4c(-c5c(Cl)cccc5Cl)noc4C4CC4)CC3)cc21 [Example I7, 6-(4-(2-(5-cyclopropyl-3-(2,6-dichlorophenyl)isoxazol-4-yl)ethyl)-1,4-diazepan-1-yl)-1-methyl-1H-indole-3-carboxylic Acid]	98.1%	25 nM	743 nM
CC1CN(c2ccc3c(C(=O)O)cn(C)c3c2)CCN1CCc1c(-c2c(Cl)cccc2Cl)noc1C1CC1 (stereo not drawn) [Example I8, 6-(4-(2-(5-cyclopropyl-3-(2,6-dichlorophenyl)isoxazol-4-yl)ethyl)-3-methylpiperazin-1-yl)-1-methyl-1H-indole-3-carboxylic Acid]	202%	94 nM	138 nM
CC1CCN(c2ccc3c(C(=O)O)cn(C)c3c2)CCN1CCc1c(-c2c(Cl)cccc2Cl)noc1C1CC1 (stereo not drawn) [Example I55, 6-(4-(2-(5-cyclopropyl-3-(2,6-dichlorophenyl)isoxazol-4-yl)ethyl)-5-methyl-1,4-diazepan-1-yl)-1-methyl-1H-indole-3-carboxylic Acid]	70.9%	2770 nM	
COC(=O)c1cn(C)c2cc(N3CCC(C)N(CCc4c(-c5c(Cl)cccc5Cl)noc4C4CC4)CC3)ccc12 (stereo not drawn) [Example I56, methyl 6-(4-(2-(5-cyclopropyl-3-(2,6-dichlorophenyl)isoxazol-4-yl)ethyl)-5-methyl-1,4-diazepan-1-yl)-1-methyl-1H-indole-3-carboxylate]		> 10000 nM	
CC1CC(c2ccc3c(C(=O)O)cn(C)c3c2)CCN1CCc1c(-c2c(Cl)cccc2Cl)noc1C1CC1 (stereo not drawn) [Example I57, 6-(1-(2-(5-cyclopropyl-3-(2,6-dichlorophenyl)isoxazol-4-yl)ethyl)-2-methylpiperidin-4-yl)-1-methyl-1H-indole-3-carboxylic Acid]	180%	384 nM	
COC(=O)c1cn(C)c2cc(N3CCC(N(C)Cc4c(-c5c(Cl)cccc5Cl)noc4C4CC4)CC3)ccc12 [Example I59, methyl 6-(4-(((5-cyclopropyl-3-(2,6-dichlorophenyl)isoxazol-4-yl)methyl)(methyl)amino)piperidin-1-yl)-1-methyl-1H-indole-3-carboxylate]		> 10000 nM	
O=C(O)c1cc(F)c2nc(N3CC4CC(C3)C4OCc3c(-c4ccccc4OC(F)(F)F)noc3C3CC3)sc2c1 (stereo not drawn) [Example I60, 2-(6-((5-cyclopropyl-3-(2-(trifluoromethoxy)phenyl)isoxazol-4-yl)methoxy)-3-azabicyclo[3.1.1]heptan-3-yl)-4-fluorobenzo[d]thiazole-6-carboxylic Acid]	35.3%	732 nM	
Cn1cc(C(=O)O)c2ccc(N3CC4CC(C3)C4OCc3c(-c4c(Cl)cccc4Cl)noc3C3CC3)cc21 (stereo not drawn) [Example I61, 6-(6-((5-cyclopropyl-3-(2,6-dichlorophenyl)isoxazol-4-yl)methoxy)-3-azabicyclo[3.1.1]heptan-3-yl)-1-methyl-1H-indole-3-carboxylic Acid]	67.7%	616 nM	
Cn1cc(C(=O)O)c2c(F)cc(N3CC4CC(C3)C4OCc3c(-c4c(Cl)cccc4Cl)noc3C3CC3)cc21 (stereo not drawn) [Example I63, 6-(6-((5-cyclopropyl-3-(2,6-dichlorophenyl)isoxazol-4-yl)methoxy)-3-azabicyclo[3.1.1]heptan-3-yl)-4-fluoro-1-methyl-1H-indole-3-carboxylic Acid]	106%	102 nM	
O=C(O)c1ccc2nc(N3CC4CC(C3)C4OCc3c(-c4c(Cl)cccc4Cl)noc3C3CC3)sc2c1 (stereo not drawn) [Example I65, 2-(6-((5-cyclopropyl-3-(2,6-dichlorophenyl)isoxazol-4-yl)methoxy)-3-azabicyclo[3.1.1]heptan-3-yl)benzo[d]thiazole-6-carboxylic Acid]		> 10000 nM	
O=C(O)c1ccc2nc(N3CC4CC(C3)C4OCc3c(-c4ccccc4OC(F)(F)F)noc3C3CC3)sc2c1 (stereo not drawn) [Example I66, 2-(6-((5-cyclopropyl-3-(2-(trifluoromethoxy)phenyl)isoxazol-4-yl)methoxy)-3-azabicyclo[3.1.1]heptan-3-yl)benzo[d]thiazole-6-carboxylic Acid]		> 10000 nM	
O=C(O)c1ccc2nc(N3CC4CC(C3)C4OCc3c(-c4c(Cl)cccc4Cl)noc3C3CC3)sc2c1 (stereo not drawn) [Example I67, 2-(6-((5-cyclopropyl-3-(2,6-dichlorophenyl)isoxazol-4-yl)methoxy)-3-azabicyclo[3.1.1]heptan-3-yl)benzo[d]thiazole-6-carboxylic Acid]		> 10000 nM	

From patent publication US20220227745A1, “Compounds For Modulating FXR” (NANJING RUIJIE PHARMA TECH CO., LTD., priority 2019, published 2022)
